Measured values from patent US10851069B2, “Compositions of crystallized hydrophobic compounds and methods of making and using same” (Massachusetts Institute of Technology, priority 2016, dated 2020).

Key:
[1] = test system: inflammatory macrophage markers Sphk1, TNFα, Arg1, IL1; assay: NanoString multiplexed gene expression analysis of retrieved capsules; format: in vivo, C57BL/6 mice; conditions: amorphous drug-loaded capsules, 2 weeks IP; CSF1R-targeting agents compared
Experimental: RNAs for mock-implanted (mock) controls, or for various drug-loaded 0.5 mm diameter alginate sphere-bearing mice (n=4/group) were isolated from tissue samples taken at various time points after implantation, as described. Respective RNAs were quantified, diluted to the appropriate concentration (100 ng/μl), and then 500 ng of each sample was processed according to NanoString manufacturer protocols for expression analysis via our customized multiplexed gene mouse macrophage subtyping panel. RNA levels (absolute copy numbers) were obtained following nCounter (NanoString Technologies Inc., Seattle, Wash.) quantification, and group samples were analyzed using nSolver analysis software (NanoString Technologies Inc., Seattle, Wash.).

[2] = test system: STZ-induced diabetic C57BL/6 mice; assay: Blood glucose monitoring after transplantation of encapsulated rat islets with or without drug; format: in vivo
Experimental: Immediately prior to encapsulation, the cultured islets were centrifuged at 1,400 rpm for 1 minute and washed with Ca-free Krebs-Henseleit (KH) Buffer (4.7 mM KCl, 25 mM HEPES, 1.2 mM KH2PO4, 1.2 mM MgSO4×7H2O, 135 mM NaCl, pH≈7.4, ≈290 mOsm). After washing, islets were centrifuged again and all supernatant was aspirated. The islet pellet was then re-suspended in a 2.0% solution of SLG20 alginate dissolved in 0.9% NaCl solution at an islet density of 1,000 islets per 1.0 ml alginate solution. Spheres were crosslinked using a BaCl2 gelling solution and their sizes were controlled using similar procedures as the empty spheres (described above). Immediately after crosslinking, the encapsulated islets were washed 4 times with HEPES buffer and 2 times with RPMI Medium 1640 with 10% HIFBS and cultured overnight at 37° C. for transplantation. As the islets had variable sizes (50-400 μm) and there was an inevitable loss of islets during the encapsulation process, the total number of encapsulated islets were recounted and converted into islet equivalents (IE, normalized to 150 μm size) based on a previously published method (Ricordi, C. et al. Islet isolation assessment in man and large animals. Acta 18 Diabetol. Lat. 27, 185195 (1990)) prior to transplantation.
All animal protocols were approved by the MIT Committee on Animal Care, and all surgical procedures and post-operative care was supervised by MIT Division of Comparative Medicine veterinary staff. Immune-competent male non-diabetic or STZ-induced diabetic C57BL/6 mice (Jackson Laboratory, Bar Harbor, Me.) were anesthetized with 3% isoflurane in oxygen and had their abdomens shaved and sterilized using betadine and isopropanol. Preoperatively, all mice also received a 0.05 mg/kg dose of buprenorphine subcutaneously as a pre-surgical analgesic, along with 0.3 mL of 0.9% saline subcutaneously to prevent dehydration. […]
Blood glucose levels were monitored three times a week following transplantation of islet-containing alginate capsules. […]

rat islets = assay: Live/dead islet staining of islets co-encapsulated with drug; format: cell-based; conditions: amorphous and crystalline forms
Experimental: Male Sprague-Dawley rats from Jackson Laboratories (Bar Harbor, Me.) weighing approximately 300 grams were used for harvesting islets. All rats were anesthetized by a 1:20 xylazine (10 mg/kg) to ketamine (150 mg/kg) injection given intraperitoneally, and the total volume of each injection was 0.4 ml-0.5 ml depending on the weight of rat. Isolation surgeries were performed as described by Lacy and Kostianovsky^2. Briefly, the bile duct was cannulated and the pancreas was distended by an in vivo injection of 0.15% Liberase (Research Grade, Roche) in RPMI 1640 media solution. Rats were sacrificed by cutting the descending aorta and the distended pancreatic organs were removed and held in 50 ml conical tubes on ice until the completion of all surgeries. All tubes were placed in a 37° C. water bath for a 30 min digestion, which was stopped by adding 10-15 ml of cold M199 media with 10% heat-inactivated fetal bovine serum (HIFBS) and lightly shaking. Digested pancreases were washed twice in the same aforementioned M199 media, filtered through a 450 μm sieve, and then suspended in a Histopaque 1077 (Sigma)/M199 media gradient and centrifuged at 1,700 RCF at 4° C. […] Purified islets were hand-counted by aliquot under a light microscope and then washed three times in sterile ix phosphate-buffered saline. […]

COc1ccc(COc2ccc(Cc3cnc(N)nc3N)cc2OC)cc1 [GW2580, 5-[[3-Methoxy-4-[(4-methoxyphenyl)methoxy]phenyl]methyl]-2,4-pyrimidinediamine]
gene expression responses [1]: almost identical gene expression responses
improvement of normoglycemia duration over controls ([2]; amorphous): 2 fold
improvement of normoglycemia duration over controls ([2]; crystalline): approximately 13 fold
duration of maintained normoglycemia ([2]; crystalline, 0.5 mm alginate microspheres): over 1.25 years
toxicity to co-encapsulated islets (dead/live imaging) (rat islets): non-toxic
